Key:
Test in all cases: Test B pre-/postemergence plant response
Assay type in all cases: in vivo
corn (Zea mays) = details: for Corn plant response rating: 8 g ai/ha
Method in brief: (§1)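 Seeds were sown and sprayed preemergence, while plants at 2 to 18 cm (1- to 4-leaf stage) got postemergence sprays. Compounds were formulated in a non-phytotoxic solvent mixture with surfactant. After 13 to 15 days in a greenhouse, injury was rated visually against untreated controls, 0 (no effect) to 100 (complete control).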

[1] = tested on: downy bromegrass (Bromus tectorum); details: for Bromegrass, Downy plant response rating: 8 g ai/ha
Method in brief: as §1

[2] = tested on: common ragweed (Ambrosia elation); details: for Ragweed plant response rating: 8 g ai/ha
Method in brief: as §1

[3] = tested on: eastern black (E.B.) nightshade (Solanum ptycanthum); details: Preemergence
Method in brief: as §1

[4] = tested on: green foxtail (Setaria viridis); details: for Foxtail, Green plant response rating: 8 g ai/ha
Method in brief: as §1

[5] = tested on: woolly cupgrass (Eriochloa villosa); details: for Cupgrass, Woolly plant response rating: 8 g ai/ha
Method in brief: as §1

[6] = tested on: surinam grass (Brachiaria decumbens); details: for Surinam Grass plant response rating: 8 g ai/ha
Method in brief: as §1

[7] = tested on: common (oilseed) sunflower (Helianthus annuus); details: Preemergence
Method in brief: as §1

[8] = tested on: cocklebur (Xanthium strumarium); details: for Cocklebur plant response rating: 8 g ai/ha
Method in brief: as §1

wild oat (Avena fatua) = details: for Oat, Wild plant response rating: 8 g ai/ha
Method in brief: as §1

[9] = tested on: Russian thistle (Salsola iberica); details: Preemergence
Method in brief: as §1

[10] = tested on: blackgrass (Alopecurus myosuroides); details: for Blackgrass plant response rating: 8 g ai/ha
Method in brief: as §1

[11] = tested on: yellow nutsedge (Cyperus esculentus); details: for Nutsedge, Yellow plant response rating: 8 g ai/ha
Method in brief: as §1

[12] = tested on: wheat (Triticum aestivum); details: for Wheat plant response rating: 8 g ai/ha
Method in brief: as §1

[13] = Postemergence, 16 g ai/ha, scale 0 to 100
[14] = Postemergence, 31 g ai/ha, scale 0 to 100, 0 no effect, 100 complete control
[15] = Postemergence, 62 g ai/ha, scale 0 to 100, 0 no effect, 100 complete control
[16] = Preemergence, 16 g ai/ha, scale 0 to 100 (0 no effect, 100 complete control)
[17] = Preemergence, 31 g ai/ha, 0 to 100 scale, 0 no effect, 100 complete control
[18] = Preemergence, 62 g ai/ha, scale 0 to 100
[19] = 16 g ai/ha, scale 0 to 100 (0 no effect, 100 complete control)
[20] = 31 g ai/ha, 0 to 100 scale, 0 no effect, 100 complete control

## Cc1cc(-c2ccc(Cl)cc2)nn1-c1c(OS(=O)(=O)c2ccccc2)cnn(C)c1=O [Compound 35]
Corn (Zea mays); postemergence, 0-100 scale
  Corn plant response rating: 40
Corn (Zea mays); [13]
  Plant response rating, Corn: 90
Corn (Zea mays); [14]
  Plant response rating, Corn: 100
Corn (Zea mays); [15]
  Plant response rating, Corn: 100
Corn (Zea mays); [16]
  Plant response rating, Corn: 40
Corn (Zea mays); [17]
  Plant response rating, Corn: 55
Corn (Zea mays); [18]
  Plant response rating, Corn: 90
Corn (Zea mays); Preemergence, scale 0 to 100
  Corn plant response rating: 5
[1]; postemergence, 0-100 scale
  Bromegrass, Downy plant response rating: 0
[1]; [13]
  Plant response rating, Bromegrass, Downy: 20
[1]; [14]
  Plant response rating, Bromegrass, Downy: 20
[1]; [15]
  Plant response rating, Bromegrass, Downy: 60
[1]; [16]
  Plant response rating, Bromegrass, Downy: 40
[1]; [17]
  Plant response rating, Bromegrass, Downy: 40
[1]; [18]
  Plant response rating, Bromegrass, Downy: 60
[1]; Preemergence, scale 0 to 100
  Bromegrass, Downy plant response rating: 40
[2]; postemergence, 0-100 scale
  Ragweed plant response rating: 0
[2]; [13]
  Plant response rating, Ragweed: 0
[2]; [14]
  Plant response rating, Ragweed: 0
[2]; [15]
  Plant response rating, Ragweed: 0
[2]; [16]
  Plant response rating, Ragweed: 0
[2]; [17]
  Plant response rating, Ragweed: 0
[2]; [18]
  Plant response rating, Ragweed: 0
[2]; Preemergence, scale 0 to 100
  Ragweed plant response rating: 0
[3]; [19]
  Plant response rating, Nightshade, E. B.: 0
[3]; [20]
  Plant response rating, Nightshade, E. B.: 0
[3]; 62 g ai/ha, scale 0 to 100
  Plant response rating, Nightshade, E. B.: 0
[3]; 8 g ai/ha, scale 0 to 100
  Nightshade, E. B. plant response rating: 0
[4]; postemergence, 0-100 scale
  Foxtail, Green plant response rating: 0
[4]; [13]
  Plant response rating, Foxtail, Green: 75
[4]; [14]
  Plant response rating, Foxtail, Green: 95
[4]; [15]
  Plant response rating, Foxtail, Green: 95
[4]; [16]
  Plant response rating, Foxtail, Green: 100
[4]; [17]
  Plant response rating, Foxtail, Green: 100
[4]; [18]
  Plant response rating, Foxtail, Green: 100
[4]; Preemergence, scale 0 to 100
  Foxtail, Green plant response rating: 30
[5]; postemergence, 0-100 scale
  Cupgrass, Woolly plant response rating: 80
[5]; [13]
  Plant response rating, Cupgrass, Woolly: 95
[5]; [14]
  Plant response rating, Cupgrass, Woolly: 100
[5]; [15]
  Plant response rating, Cupgrass, Woolly: 100
[5]; [16]
  Plant response rating, Cupgrass, Woolly: 35
[5]; [17]
  Plant response rating, Cupgrass, Woolly: 100
[5]; [18]
  Plant response rating, Cupgrass, Woolly: 100
[5]; Preemergence, scale 0 to 100
  Cupgrass, Woolly plant response rating: 35
[6]; postemergence, 0-100 scale
  Surinam Grass plant response rating: 70
[6]; [13]
  Plant response rating, Surinam Grass: 95
[6]; [15]
  Plant response rating, Surinam Grass: 100
[6]; [16]
  Plant response rating, Surinam Grass: 90
[6]; [17]
  Plant response rating, Surinam Grass: 100
[6]; [18]
  Plant response rating, Surinam Grass: 100
[6]; Preemergence, scale 0 to 100
  Surinam Grass plant response rating: 45
[7]; [19]
  Plant response rating, Sunflower: 0
[7]; [20]
  Plant response rating, Sunflower: 0
[7]; 62 g ai/ha, scale 0 to 100
  Plant response rating, Sunflower: 0
[7]; 8 g ai/ha, scale 0 to 100
  Sunflower plant response rating: 0
[8]; postemergence, 0-100 scale
  Cocklebur plant response rating: 0
[8]; [13]
  Plant response rating, Cocklebur: 0
[8]; [14]
  Plant response rating, Cocklebur: 0
[8]; [15]
  Plant response rating, Cocklebur: 0
[8]; [16]
  Plant response rating, Cocklebur: 0
[8]; [17]
  Plant response rating, Cocklebur: 0
[8]; [18]
  Plant response rating, Cocklebur: 0
[8]; Preemergence, scale 0 to 100
  Cocklebur plant response rating: 0
Wild oat (Avena fatua); postemergence, 0-100 scale
  Oat, Wild plant response rating: 50
Wild oat (Avena fatua); [13]
  Plant response rating, Oat, Wild: 70
Wild oat (Avena fatua); [14]
  Plant response rating, Oat, Wild: 85
Wild oat (Avena fatua); [15]
  Plant response rating, Oat, Wild: 95
Wild oat (Avena fatua); [17]
  Plant response rating, Oat, Wild: 80
Wild oat (Avena fatua); [18]
  Plant response rating, Oat, Wild: 95
Wild oat (Avena fatua); Preemergence, scale 0 to 100
  Oat, Wild plant response rating: 0
[9]; [19]
  Plant response rating, Russian Thistle: 0
[9]; [20]
  Plant response rating, Russian Thistle: 0
[9]; 62 g ai/ha, scale 0 to 100
  Plant response rating, Russian Thistle: 0
[9]; 8 g ai/ha, scale 0 to 100
  Russian Thistle plant response rating: 0
[10]; postemergence, 0-100 scale
  Blackgrass plant response rating: 0
[10]; [13]
  Plant response rating, Blackgrass: 60
[10]; [14]
  Plant response rating, Blackgrass: 70
[10]; [15]
  Plant response rating, Blackgrass: 90
[10]; [16]
  Plant response rating, Blackgrass: 85
[10]; [17]
  Plant response rating, Blackgrass: 100
[10]; [18]
  Plant response rating, Blackgrass: 100
[10]; Preemergence, scale 0 to 100
  Blackgrass plant response rating: 0
[11]; postemergence, 0-100 scale
  Nutsedge, Yellow plant response rating: 0
[11]; [13]
  Plant response rating, Nutsedge, Yellow: 0
[11]; [14]
  Plant response rating, Nutsedge, Yellow: 0
[11]; [15]
  Plant response rating, Nutsedge, Yellow: 0
[11]; [16]
  Plant response rating, Nutsedge, Yellow: 0
[11]; [17]
  Plant response rating, Nutsedge, Yellow: 0
[11]; [18]
  Plant response rating, Nutsedge, Yellow: 0
[11]; Preemergence, scale 0 to 100
  Nutsedge, Yellow plant response rating: 0
[12]; postemergence, 0-100 scale
  Wheat plant response rating: 0
[12]; [13]
  Plant response rating, Wheat: 35
[12]; [15]
  Plant response rating, Wheat: 85
[12]; [16]
  Plant response rating, Wheat: 0
[12]; [17]
  Plant response rating, Wheat: 0
[12]; [18]
  Plant response rating, Wheat: 30
[12]; Preemergence, scale 0 to 100
  Wheat plant response rating: 0
